Reference: patent US8969360B2, “Compounds useful as inhibitors of ATR kinase” (Vertex Pharmaceuticals Incorporated, priority 2013, dated 2015)

Experiments:
[1] = molecular target: T1, ATR kinase (Homo sapiens, UniProt Q13535); experiment: ATR Inhibition Assay (radioactive-phosphate incorporation); assay type: biochemical; details: Ki(app); 5 nM full-length ATR, 10 μM ATP, 800 μM target peptide, 25° C.
T1 construct: Assays were carried out at 25° C. in the presence of 5 nM full-length ATR
Outline: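 Full-length ATR (5 nM) in 50 mM Tris/HCl pH 7.5, 10 mM MgCl2, 1 mM DTT, with 800 μM peptide substrate and 10 μM [γ-33P]ATP at 25 °C. Compounds (from 15 μM final, 3-fold dilutions, 7% DMSO) were preincubated 10 min; the reaction was stopped at 24 h. 33P incorporation was captured on phosphocellulose; Ki(app) was from non-linear regression of initial rates.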

[2] = system: HCT116 colorectal cancer cells; experiment: Cisplatin Sensitization Assay (96 h cell viability MTS); assay type: cell-based; details: concentration of compound required to reduce the IC50 of Cisplatin alone by at least 3-fold; HCT116, 96 h MTS
Outline: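 HCT116 cells received compound and cisplatin together as a full matrix of 2-fold dilutions, each from a 10 μM top final concentration. After 96 h at 37 °C and 5% CO2, viability was read by MTS (1 h, A490). The value is the compound concentration that lowers the cisplatin IC50 at least 3-fold.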

T1 sequence (Q13535 whole entry): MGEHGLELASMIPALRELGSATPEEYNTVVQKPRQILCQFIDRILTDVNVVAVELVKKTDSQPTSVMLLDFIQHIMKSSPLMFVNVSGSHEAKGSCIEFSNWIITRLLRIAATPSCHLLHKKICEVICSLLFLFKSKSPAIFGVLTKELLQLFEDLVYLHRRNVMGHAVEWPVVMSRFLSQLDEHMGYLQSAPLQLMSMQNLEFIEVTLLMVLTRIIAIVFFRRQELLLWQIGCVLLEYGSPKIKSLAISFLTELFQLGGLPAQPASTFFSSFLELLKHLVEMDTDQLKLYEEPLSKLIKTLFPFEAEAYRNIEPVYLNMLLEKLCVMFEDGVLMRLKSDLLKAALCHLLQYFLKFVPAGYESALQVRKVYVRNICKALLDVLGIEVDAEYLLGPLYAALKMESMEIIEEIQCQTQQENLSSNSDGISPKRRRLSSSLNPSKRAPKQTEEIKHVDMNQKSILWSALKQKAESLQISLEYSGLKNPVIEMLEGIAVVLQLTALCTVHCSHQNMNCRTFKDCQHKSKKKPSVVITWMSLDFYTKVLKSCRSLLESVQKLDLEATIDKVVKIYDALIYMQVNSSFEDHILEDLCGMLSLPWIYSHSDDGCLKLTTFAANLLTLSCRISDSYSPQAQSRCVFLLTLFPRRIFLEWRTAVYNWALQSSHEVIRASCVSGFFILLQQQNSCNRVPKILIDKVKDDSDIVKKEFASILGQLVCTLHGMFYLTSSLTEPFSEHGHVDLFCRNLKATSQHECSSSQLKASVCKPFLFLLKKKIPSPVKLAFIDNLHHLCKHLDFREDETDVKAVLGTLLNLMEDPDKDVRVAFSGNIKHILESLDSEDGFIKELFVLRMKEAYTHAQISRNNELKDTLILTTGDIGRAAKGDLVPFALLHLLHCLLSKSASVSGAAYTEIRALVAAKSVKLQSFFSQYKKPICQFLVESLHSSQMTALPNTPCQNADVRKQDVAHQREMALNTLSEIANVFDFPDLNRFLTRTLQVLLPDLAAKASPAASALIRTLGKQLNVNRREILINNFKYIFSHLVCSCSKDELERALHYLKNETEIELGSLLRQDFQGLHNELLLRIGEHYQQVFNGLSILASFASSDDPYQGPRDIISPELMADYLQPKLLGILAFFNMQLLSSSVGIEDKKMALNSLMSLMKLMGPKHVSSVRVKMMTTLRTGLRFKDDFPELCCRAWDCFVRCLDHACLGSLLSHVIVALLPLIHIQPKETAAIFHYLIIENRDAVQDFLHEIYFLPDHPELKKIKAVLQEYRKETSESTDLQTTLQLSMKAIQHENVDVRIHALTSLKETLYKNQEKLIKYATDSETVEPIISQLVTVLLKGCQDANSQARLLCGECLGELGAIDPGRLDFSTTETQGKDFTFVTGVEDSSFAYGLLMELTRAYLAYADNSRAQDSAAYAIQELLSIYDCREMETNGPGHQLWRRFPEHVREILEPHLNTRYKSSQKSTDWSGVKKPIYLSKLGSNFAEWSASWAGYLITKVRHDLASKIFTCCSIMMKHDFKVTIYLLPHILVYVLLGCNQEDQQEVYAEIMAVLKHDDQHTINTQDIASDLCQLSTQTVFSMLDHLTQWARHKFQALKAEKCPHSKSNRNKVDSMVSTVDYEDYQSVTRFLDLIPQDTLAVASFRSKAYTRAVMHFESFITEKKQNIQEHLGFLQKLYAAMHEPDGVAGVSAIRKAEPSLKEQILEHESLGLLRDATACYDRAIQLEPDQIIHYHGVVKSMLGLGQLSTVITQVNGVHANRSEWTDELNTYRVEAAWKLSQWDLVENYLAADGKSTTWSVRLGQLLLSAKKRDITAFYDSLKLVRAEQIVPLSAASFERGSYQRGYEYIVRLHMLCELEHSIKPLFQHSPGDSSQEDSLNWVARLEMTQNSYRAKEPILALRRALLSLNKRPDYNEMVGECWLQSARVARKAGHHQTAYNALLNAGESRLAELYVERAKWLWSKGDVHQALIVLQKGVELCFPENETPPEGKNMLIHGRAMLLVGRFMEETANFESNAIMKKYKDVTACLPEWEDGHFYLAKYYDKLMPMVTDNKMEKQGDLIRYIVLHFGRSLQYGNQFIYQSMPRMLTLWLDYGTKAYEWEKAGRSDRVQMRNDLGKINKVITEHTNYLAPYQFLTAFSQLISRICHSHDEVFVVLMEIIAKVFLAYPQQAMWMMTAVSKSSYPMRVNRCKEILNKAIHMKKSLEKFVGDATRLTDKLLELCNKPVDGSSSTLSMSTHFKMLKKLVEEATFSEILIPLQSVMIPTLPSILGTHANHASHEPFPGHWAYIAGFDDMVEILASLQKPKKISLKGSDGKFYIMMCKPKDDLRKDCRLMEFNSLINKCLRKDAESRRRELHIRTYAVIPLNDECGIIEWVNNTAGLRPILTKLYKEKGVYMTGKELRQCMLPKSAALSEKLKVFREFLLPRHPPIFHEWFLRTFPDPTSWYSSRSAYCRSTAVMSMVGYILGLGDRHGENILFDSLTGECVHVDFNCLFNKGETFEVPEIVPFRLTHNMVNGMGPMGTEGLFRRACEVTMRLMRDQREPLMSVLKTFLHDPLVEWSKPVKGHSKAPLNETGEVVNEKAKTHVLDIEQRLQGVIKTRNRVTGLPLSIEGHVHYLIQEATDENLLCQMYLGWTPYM

Compound | Ki [1] | Synergy with Cisplatin [2]
COc1ccncc1NC(=O)c1c(N)nn2ccc(CO)nc12 [I-O-54, 2-amino-5-(hydroxymethyl)-N-(4-methoxypyridin-3-yl)pyrazolo[1,5-a]pyrimidine-3-carboxamide] | 10 to 1000 nM | ++ (Compounds with a Cisplatin sensitization value>0.02 μM but <0.2 μM are marked with “++.”)
C=CCOCc1ccn2nc(N)c(C(=O)Nc3cnccc3OC)c2n1 [I-O-55, 5-((allyloxy)methyl)-2-amino-N-(4-methoxypyridin-3-yl)pyrazolo[1,5-a]pyrimidine-3-carboxamide] | 10 to 1000 nM | +++ (Compounds with a Cisplatin sensitization value of <0.02 μM are marked with “+++.”)
COc1ccncc1NC(=O)c1c(N)nn2ccc(OC3COC3)nc12 [I-O-56, 2-amino-N-(4-methoxypyridin-3-yl)-5-(oxetan-3-yloxy)pyrazolo[1,5-a]pyrimidine-3-carboxamide] | 10 to 1000 nM | +++ (Compounds with a Cisplatin sensitization value of <0.02 μM are marked with “+++.”)
COc1ccncc1NC(=O)c1c(N)nn2ccc(OC3CCN(C)C3)nc12 (stereo not shown) [I-O-57, 2-amino-N-(4-methoxypyridin-3-yl)-5-((1-methylpyrrolidin-3-yl)oxy)pyrazolo[1,5-a]pyrimidine-3-carboxamide] | 10 to 1000 nM | ++ (Compounds with a Cisplatin sensitization value>0.02 μM but <0.2 μM are marked with “++.”)
COc1ccncc1NC(=O)c1c(N)nn2ccc(OC3CCCN(C)C3)nc12 (stereo not shown) [I-O-58, 2-amino-N-(4-methoxypyridin-3-yl)-5-((1-methylpiperidin-3-yl)oxy)pyrazolo[1,5-a]pyrimidine-3-carboxamide] | 10 to 1000 nM | ++ (Compounds with a Cisplatin sensitization value>0.02 μM but <0.2 μM are marked with “++.”)
COc1ccncc1NC(=O)c1c(N)nn2ccc(OCCN3CCC3)nc12 [I-O-59, 2-amino-5-(2-(azetidin-1-yl)ethoxy)-N-(4-methoxypyridin-3-yl)pyrazolo[1,5-a]pyrimidine-3-carboxamide] | 10 to 1000 nM | ++ (Compounds with a Cisplatin sensitization value>0.02 μM but <0.2 μM are marked with “++.”)
COc1ccncc1NC(=O)c1c(N)nn2ccc(OCCN3CCCC3)nc12 [I-O-60, 2-amino-N-(4-methoxypyridin-3-yl)-5-(2-(pyrrolidin-1-yl)ethoxy)pyrazolo[1,5-a]pyrimidine-3-carboxamide] | 10 to 1000 nM | ++ (Compounds with a Cisplatin sensitization value>0.02 μM but <0.2 μM are marked with “++.”)
COc1ccncc1NC(=O)c1c(N)nn2ccc(OC3CCN(C)CC3)nc12 [I-O-61, 2-amino-N-(4-methoxypyridin-3-yl)-5-((1-methylpiperidin-4-yl)oxy)pyrazolo[1,5-a]pyrimidine-3-carboxamide] | 10 to 1000 nM | ++ (Compounds with a Cisplatin sensitization value>0.02 μM but <0.2 μM are marked with “++.”)
COc1ccncc1NC(=O)c1c(N)nn2ccc(OCCN(C)C)nc12 [I-O-62, 2-amino-5-(2-(dimethylamino)ethoxy)-N-(4-methoxypyridin-3-yl)pyrazolo[1,5-a]pyrimidine-3-carboxamide] | 10 to 1000 nM | ++ (Compounds with a Cisplatin sensitization value>0.02 μM but <0.2 μM are marked with “++.”)
COc1ccncc1NC(=O)c1c(N)nn2ccc(OCCCN3CCC3)nc12 [I-O-63, 2-amino-5-(3-(azetidin-1-yl)propoxy)-N-(4-methoxypyridin-3-yl)pyrazolo[1,5-a]pyrimidine-3-carboxamide] | 10 to 1000 nM | ++ (Compounds with a Cisplatin sensitization value>0.02 μM but <0.2 μM are marked with “++.”)
CC(C)Oc1ccncc1NC(=O)c1c(N)nn2ccc(OCCN(C)C)nc12 [I-O-64, 2-amino-5-(2-(dimethylamino)ethoxy)-N-(4-isopropoxypyridin-3-yl)pyrazolo[1,5-a]pyrimidine-3-carboxamide] | 1000 to 5000 nM | + (Compounds with a Cisplatin sensitization value >0.2 μM but <5 μM are marked with “+.”)
COc1cc(Cl)ncc1NC(=O)c1c(N)nn2ccc(OCCN(C)C)nc12 [I-O-65, 2-amino-N-(6-chloro-4-methoxypyridin-3-yl)-5-(2-(dimethylamino)ethoxy)pyrazolo[1,5-a]pyrimidine-3-carboxamide] | 10 to 1000 nM | + (Compounds with a Cisplatin sensitization value >0.2 μM but <5 μM are marked with “+.”)
CNCc1ccn2nc(N)c(C(=O)Nc3cnccc3OC)c2n1 [I-O-66, 2-amino-N-(4-methoxypyridin-3-yl)-5-((methylamino)methyl)pyrazolo[1,5-a]pyrimidine-3-carboxamide] | 10 to 1000 nM | ++ (Compounds with a Cisplatin sensitization value>0.02 μM but <0.2 μM are marked with “++.”)
CCCNc1ccn2nc(N)c(C(=O)Nc3cnccc3OC)c2n1 [I-O-67, 2-amino-N-(4-methoxypyridin-3-yl)-5-(propylamino)pyrazolo[1,5-a]pyrimidine-3-carboxamide] | 10 to 1000 nM | ++ (Compounds with a Cisplatin sensitization value>0.02 μM but <0.2 μM are marked with “++.”)
COc1ccncc1NC(=O)c1c(N)nn2ccc(NCC3COC3)nc12 [I-O-68, 2-amino-N-(4-methoxypyridin-3-yl)-5-((oxetan-3-ylmethyl)amino)pyrazolo[1,5-a]pyrimidine-3-carboxamide] | < 10 nM | ++ (Compounds with a Cisplatin sensitization value>0.02 μM but <0.2 μM are marked with “++.”)
COc1ccncc1NC(=O)c1c(N)nn2ccc(NCCN(C)C)nc12 [I-O-70, 2-amino-5-((2-(dimethylamino)ethyl)amino)-N-(4-methoxypyridin-3-yl)pyrazolo[1,5-a]pyrimidine-3-carboxamide] | 10 to 1000 nM | + (Compounds with a Cisplatin sensitization value >0.2 μM but <5 μM are marked with “+.”)
COc1ccncc1NC(=O)c1c(N)nn2ccc(NCC3CCCN3C)nc12 (stereo not shown) [I-O-71] | 10 to 1000 nM | + (Compounds with a Cisplatin sensitization value >0.2 μM but <5 μM are marked with “+.”)
COc1ccncc1NC(=O)c1c(N)nn2ccc(NCCN3CCCC3)nc12 [I-O-72, 2-amino-N-(4-methoxypyridin-3-yl)-5-((2-(pyrrolidin-1-yl)ethyl)amino)pyrazolo[1,5-a]pyrimidine-3-carboxamide] | 10 to 1000 nM | + (Compounds with a Cisplatin sensitization value >0.2 μM but <5 μM are marked with “+.”)
COc1ccncc1NC(=O)c1c(N)nn2ccc(N(C)CC3CCCN3C)nc12 (stereo not shown) [I-O-73, 2-amino-N-(4-methoxypyridin-3-yl)-5-(methyl((1-methylpyrrolidin-2-yl)methyl)amino)pyrazolo[1,5-a]pyrimidine-3-carboxamide] | 10 to 1000 nM | + (Compounds with a Cisplatin sensitization value >0.2 μM but <5 μM are marked with “+.”)
COc1ccncc1NC(=O)c1c(N)nn2ccc(N3CCNC(C(F)(F)F)C3)nc12 (stereo not shown) [I-O-74, 2-amino-N-(4-methoxypyridin-3-yl)-5-(3-(trifluoromethyl)piperazin-1-yl)pyrazolo[1,5-a]pyrimidine-3-carboxamide] | < 10 nM | +++ (Compounds with a Cisplatin sensitization value of <0.02 μM are marked with “+++.”)
COc1ccncc1NC(=O)c1c(N)nn2ccc(N3CCN4CCC[C@@H]4C3)nc12 [I-O-75, (R)-2-amino-5-(hexahydropyrrolo[1,2-a]pyrazin-2(1H)-yl)-N-(4-methoxypyridin-3-yl)pyrazolo[1,5-a]pyrimidine-3-carboxamide] | 10 to 1000 nM | ++ (Compounds with a Cisplatin sensitization value>0.02 μM but <0.2 μM are marked with “++.”)
COc1ccncc1NC(=O)c1c(N)nn2ccc(N3CCNCC3)nc12 [I-O-76, 2-amino-N-(4-methoxypyridin-3-yl)-5-(piperazin-1-yl)pyrazolo[1,5-a]pyrimidine-3-carboxamide] | 10 to 1000 nM | ++ (Compounds with a Cisplatin sensitization value>0.02 μM but <0.2 μM are marked with “++.”)
COc1ccncc1NC(=O)c1c(N)nn2ccc(N3CCNC(C)C3)nc12 (stereo not shown) [I-O-77, 2-amino-N-(4-methoxypyridin-3-yl)-5-(3-methylpiperazin-1-yl)pyrazolo[1,5-a]pyrimidine-3-carboxamide] | 10 to 1000 nM | ++ (Compounds with a Cisplatin sensitization value>0.02 μM but <0.2 μM are marked with “++.”)
COc1ccncc1NC(=O)c1c(N)nn2ccc(N3CCN(C)CC3)nc12 [I-O-78, 2-amino-N-(4-methoxypyridin-3-yl)-5-(4-methylpiperazin-1-yl)pyrazolo[1,5-a]pyrimidine-3-carboxamide] | 10 to 1000 nM | + (Compounds with a Cisplatin sensitization value >0.2 μM but <5 μM are marked with “+.”)
CC(C)Oc1ccncc1NC(=O)c1c(N)nn2ccc(N3CCN(C)CC3)nc12 [I-O-79, 2-amino-N-(4-isopropoxypyridin-3-yl)-5-(4-methylpiperazin-1-yl)pyrazolo[1,5-a]pyrimidine-3-carboxamide] | 1000 to 5000 nM | + (Compounds with a Cisplatin sensitization value >0.2 μM but <5 μM are marked with “+.”)
COc1ccncc1NC(=O)c1c(N)nn2ccc(N3CCC(N(C)C)CC3)nc12 [I-O-80, 2-amino-5-(4-(dimethylamino)piperidin-1-yl)-N-(4-methoxypyridin-3-yl)pyrazolo[1,5-a]pyrimidine-3-carboxamide] | 10 to 1000 nM | + (Compounds with a Cisplatin sensitization value >0.2 μM but <5 μM are marked with “+.”)
